Where “and” joins values, the source holds several entries; their conditions need not be identical. Identical values can stand only once.
Assay: Short-term stability of vitamin D3 and vitamin D3 palmitate in liquid vitamin formulations at 40° C. (HPLC assay)
Format: physicochemical
Details: for Vitamin D content on storage: 40° C.
Method: In addition to the above, the vitamin formulation contains flavorants, stabilizer of vitamins, and about 1.0% polysorbate 80 as surfactant. As appreciated by the skilled artisan, appropriate overages of vitamins are included in order to assure meeting the label claims. The example composition contains 1.86:1 ratio by weight of glycerine to water. The pH is 5.0 which is adjusted by using an appropriate ratio of ascorbic acid to sodium ascorbate.
Vitamin D was analyzed by a HPLC assay as described by Matthew G. Sliva, et al., "Reversed-Phase Liquid Chromatographic Determination of Vitamin D in Infant Formulas and Enteral Nutritionals," J Assoc. Off. Anal. Chem., 75, 566, 1992, except that saponification conditions of 70° C. for 40 minutes were employed.
Stability of vitamins D3 and D3 palmitate were compared in various vitamin formulations containing different amounts of water and glycerin and at different pHs. The other ingredients and method of pH adjustment were as described in Example 1. The results are in Tables 2-5. Each batch number represents a different liquid vitamin formulation. The amount of glycerin varied between 650 and 850 mg/ml, depending upon the amount of water. "Vit" represents vitamin, "Desc." represents description,"Vit D3" represents vitamin D3, and "Vit D3P" or "D3 P" represents vitamin D3 palmitate. Table 1 lists the half-life (T50) values, i.e., time to degrade to 50% of the starting concentration of vitamins D3 and D3 palmitate at 40° C., These T50 values were calculated by fitting the data to first order degradation rate.

C=C1CC[C@H](OC(=O)CCCCCCCCCCCCCCC)C/C1=C/C=C1\CCC[C@]2(C)[C@@H]([C@H](C)CCCC(C)C)CC[C@@H]12 [Vitamin D3 P, vitamin D3 palmitate]
half-life (liquid vitamin formulation, pH 5.6, Time in Weeks for 50% Degradation (T50)): 113 days | Vitamin D content on storage (pH 3.2, 252 mg/ml water, age 0 weeks, Batch #1 (D3), #2 (D3 P)): 810 IU/ml | Vitamin D content on storage (pH 3.2, 252 mg/ml water, age 2 weeks, Batch #1 (D3), #2 (D3 P)): 715 IU/ml and 717 IU/ml | Vitamin D content on storage (pH 3.2, 252 mg/ml water, age 4 weeks, Batch #1 (D3), #2 (D3 P)): 668 IU/ml | Vitamin D content on storage (pH 3.2, 252 mg/ml water, age 6 weeks, Batch #1 (D3), #2 (D3 P)): 598 IU/ml and 612 IU/ml | Vitamin D content on storage (pH 3.2, 252 mg/ml water, age 8 weeks, Batch #1 (D3), #2 (D3 P)): 544 IU/ml and 574 IU/ml | Vitamin D content on storage (pH 3.2, 252 mg/ml water, age 12 weeks, Batch #1 (D3), #2 (D3 P)): 471 IU/ml and 443 IU/ml | Vitamin D content on storage (pH 3.2, 252 mg/ml water, age 16 weeks, Batch #1 (D3), #2 (D3 P)): 397 IU/ml and 385 IU/ml | Vitamin D content on storage (pH 3.2, 390 mg/ml water, age 0 weeks, Batch #3 (D3), #4 (D3 P)): 430 IU/ml and 425 IU/ml | Vitamin D content on storage (pH 3.2, 390 mg/ml water, age 1 week, Batch #3 (D3), #4 (D3 P)): 404 IU/ml and 405 IU/ml | Vitamin D content on storage (pH 3.2, 390 mg/ml water, age 2 weeks, Batch #3 (D3), #4 (D3 P)): 405 IU/ml and 403 IU/ml | Vitamin D content on storage (pH 3.2, 390 mg/ml water, age 4 weeks, Batch #3 (D3), #4 (D3 P)): 394 IU/ml and 397 IU/ml | Vitamin D content on storage (pH 3.2, 390 mg/ml water, age 8 weeks, Batch #3 (D3), #4 (D3 P)): 384 IU/ml and 381 IU/ml | Vitamin D content on storage (pH 3.2, 390 mg/ml water, age 12 weeks, Batch #3 (D3), #4 (D3 P)): 374 IU/ml and 370 IU/ml | Vitamin D content on storage (pH 3.2, 390 mg/ml water, age 16 weeks, Batch #3 (D3), #4 (D3 P)): 366 IU/ml and 362 IU/ml | Vitamin D content on storage (pH 4.2, 252 mg/ml water, age 0 weeks, Batch #5 (D3), #6 (D3 P)): 408 IU/ml and 405 IU/ml | Vitamin D content on storage (pH 4.2, 252 mg/ml water, age 1 week, Batch #5 (D3), #6 (D3 P)): 391 IU/ml and 386 IU/ml | Vitamin D content on storage (pH 4.2, 252 mg/ml water, age 2 weeks, Batch #5 (D3), #6 (D3 P)): 368 IU/ml and 371 IU/ml | Vitamin D content on storage (pH 4.2, 252 mg/ml water, age 4 weeks, Batch #5 (D3), #6 (D3 P)): 314 IU/ml and 316 IU/ml | Vitamin D content on storage (pH 4.2, 252 mg/ml water, age 8 weeks, Batch #5 (D3), #6 (D3 P)): 234 IU/ml | Vitamin D content on storage (pH 4.2, 252 mg/ml water, age 12 weeks, Batch #5 (D3), #6 (D3 P)): 145 IU/ml and 146 IU/ml | Vitamin D content on storage (pH 4.2, 252 mg/ml water, age 16 weeks, Batch #5 (D3), #6 (D3 P)): 145 IU/ml and 144 IU/ml | Vitamin D content on storage (pH 4.2, 390 mg/ml water, age 0 weeks, Batch #7 (D3), #8 (D3 P)): 414 IU/ml and 418 IU/ml | Vitamin D content on storage (pH 4.2, 390 mg/ml water, age 1 week, Batch #7 (D3), #8 (D3 P)): 397 IU/ml and 395 IU/ml | Vitamin D content on storage (pH 4.2, 390 mg/ml water, age 2 weeks, Batch #7 (D3), #8 (D3 P)): 395 IU/ml and 399 IU/ml | Vitamin D content on storage (pH 4.2, 390 mg/ml water, age 4 weeks, Batch #7 (D3), #8 (D3 P)): 379 IU/ml and 371 IU/ml | Vitamin D content on storage (pH 4.2, 390 mg/ml water, age 8 weeks, Batch #7 (D3), #8 (D3 P)): 353 IU/ml and 347 IU/ml | Vitamin D content on storage (pH 4.2, 390 mg/ml water, age 12 weeks, Batch #7 (D3), #8 (D3 P)): 339 IU/ml and 328 IU/ml | Vitamin D content on storage (pH 4.2, 390 mg/ml water, age 16 weeks, Batch #7 (D3), #8 (D3 P)): 319 IU/ml and 315 IU/ml | Vitamin D content on storage (pH 5.0, 252 mg/ml water, age 0 weeks, Batch #9 (D3), #10 (D3 P)): 426 IU/ml and 424 IU/ml | Vitamin D content on storage (pH 5.0, 252 mg/ml water, age 1 week, Batch #9 (D3), #10 (D3 P)): 394 IU/ml and 397 IU/ml | Vitamin D content on storage (pH 5.0, 252 mg/ml water, age 2 weeks, Batch #9 (D3), #10 (D3 P)): 363 IU/ml | Vitamin D content on storage (pH 5.0, 252 mg/ml water, age 4 weeks, Batch #9 (D3), #10 (D3 P)): 335 IU/ml and 329 IU/ml | Vitamin D content on storage (pH 5.0, 252 mg/ml water, age 8 weeks, Batch #9 (D3), #10 (D3 P)): 244 IU/ml | Vitamin D content on storage (pH 5.0, 252 mg/ml water, age 12 weeks, Batch #9 (D3), #10 (D3 P)): 201 IU/ml and 193 IU/ml | Vitamin D content on storage (pH 5.0, 252 mg/ml water, age 16 weeks, Batch #9 (D3), #10 (D3 P)): 123 IU/ml and 125 IU/ml | Vitamin D content on storage (pH 5.0, 390 mg/ml water (so in the source), age 0 weeks, Batch #11 (D3), #12 (D3 P)): 433 IU/ml and 437 IU/ml | Vitamin D content on storage (pH 5.0, 390 mg/ml water (so in the source), age 1 week, Batch #11 (D3), #12 (D3 P)): 404 IU/ml and 414 IU/ml | Vitamin D content on storage (pH 5.0, 390 mg/ml water (so in the source), age 2 weeks, Batch #11 (D3), #12 (D3 P)): 380 IU/ml and 383 IU/ml | Vitamin D content on storage (pH 5.0, 390 mg/ml water (so in the source), age 4 weeks, Batch #11 (D3), #12 (D3 P)): 364 IU/ml | Vitamin D content on storage (pH 5.0, 390 mg/ml water (so in the source), age 8 weeks, Batch #11 (D3), #12 (D3 P)): 306 IU/ml and 300 IU/ml | Vitamin D content on storage (pH 5.0, 390 mg/ml water (so in the source), age 12 weeks, Batch #11 (D3), #12 (D3 P)): 264 IU/ml and 263 IU/ml | Vitamin D content on storage (pH 5.0, 390 mg/ml water (so in the source), age 16 weeks, Batch #11 (D3), #12 (D3 P)): 188 IU/ml and 186 IU/ml | Vitamin D content on storage (pH 5.0, 390 mg/ml water, age 0 weeks, Batch #13 (D3), #14 (D3 P)): 593 IU/ml and 599 IU/ml | Vitamin D content on storage (pH 5.0, 390 mg/ml water, age 1 week, Batch #13 (D3), #14 (D3 P)): 573 IU/ml and 570 IU/ml | Vitamin D content on storage (pH 5.0, 390 mg/ml water, age 4 weeks, Batch #13 (D3), #14 (D3 P)): 554 IU/ml and 555 IU/ml | Vitamin D content on storage (pH 5.0, 390 mg/ml water, age 8 weeks, Batch #13 (D3), #14 (D3 P)): 510 IU/ml and 500 IU/ml | Vitamin D content on storage (pH 5.0, 390 mg/ml water, age 12 weeks, Batch #13 (D3), #14 (D3 P)): 525 IU/ml and 508 IU/ml | Vitamin D content on storage (pH 5.0, 390 mg/ml water, age 16 weeks, Batch #13 (D3), #14 (D3 P)): 490 IU/ml | Vitamin D content on storage (pH 5.0, 435 mg/ml water, age 0 weeks, Batch #15 (D3), #16 (D3 P)): 431 IU/ml and 433 IU/ml | Vitamin D content on storage (pH 5.0, 435 mg/ml water, age 1 week, Batch #15 (D3), #16 (D3 P)): 418 IU/ml | Vitamin D content on storage (pH 5.0, 435 mg/ml water, age 2 weeks, Batch #15 (D3), #16 (D3 P)): 395 IU/ml and 404 IU/ml | Vitamin D content on storage (pH 5.0, 435 mg/ml water, age 4 weeks, Batch #15 (D3), #16 (D3 P)): 403 IU/ml and 394 IU/ml | Vitamin D content on storage (pH 5.0, 435 mg/ml water, age 8 weeks, Batch #15 (D3), #16 (D3 P)): 364 IU/ml | Vitamin D content on storage (pH 5.0, 435 mg/ml water, age 12 weeks, Batch #15 (D3), #16 (D3 P)): 343 IU/ml and 338 IU/ml | Vitamin D content on storage (pH 5.0, 435 mg/ml water, age 16 weeks, Batch #15 (D3), #16 (D3 P)): 256 IU/ml
